From US20230190887A1, “TARGETING G3BP AGGREGATION TO PREVENT NEURODEGENERATION” (priority 2019, published 2023)
“Also recorded” adds a separate entry of the source.

How the values were obtained:
[1] = system: GFP^MYR/mCh^MYR translation reporters in DRG axons; assay: FRAP of axonal translation reporters; assay type: cell-based, rat; conditions: 10 μM peptide 30 min
Procedure: Fluorescence recovery after photobleaching (FRAP). FRAP was used to test for axonal mRNA protein synthesis using diffusion-limited GFP^MYR and mCherry^MYR reporters as described with minor modifications. In each case, DRG neurons were co-transfected with GFP^MYR 5′/3′nrn1+mCherry^MYR 5′/3′gap43 or GFP^MYR 5′/3′impβ1+mCherry^MYR5′/3′gap43 so that recovery of both reporters could be analyzed simultaneously. Cells were maintained at 37° C., 5% CO2 during imaging sequences. 488 nm and 514 nm laser lines on Leica SP8X confocal microscope were used to bleach GFP and mCherry signals, respectively (Argon laser at 70% power, pulsed every 0.82 s for 80 frames). Pinhole was set to 3 Airy units to ensure full thickness bleaching and acquisition (63×/1.4 NA oil immersion objective). Prior to photobleaching, neurons were imaged every 60 s for 2 min to acquire baseline fluorescence the region of interest (ROI; 15% laser power, 498-530 nm for GFP and 565-597 nm for mCherry emissions, respectively). The same excitation and emission parameters were used to assess recovery over 15 min post-bleach with images acquired at 30 s intervals. To determine if fluorescence recovery in axons was from translation, cultures were treated with 150 μg/ml cycloheximide (Sigma) or 100 μm anisomycin (Sigma) for 30 min prior to photobleaching for GFP^MYR 5′/3′nrn1+mCherry^MYR 5′/3′gap43 and GFP^MYR 5′/3′impβ1+mCh^MYR 5′/3′gap43 transfected DRGs, respectively. […] Photobleaching followed by analyses of recovery was performed after 30 min of peptide exposure.
For normalizing across experiments, fluorescence intensity value at t=0 min postbleach from each image sequence was set as 0%. The percentage of fluorescence recovery at each time point after photobleaching was then calculated by normalizing relative to the pre-bleach fluorescence intensity (set at 100%).

[2] = system: G3BP1 and pTDP-43 particles in C9ORF72 iPS-MN axons; assay: G3BP1/pTDP-43 RNP condensates in iPS-MN axons; assay type: cell-based, human; conditions: peptide exclusively in the axonal compartment of the MFC
Excerpt: Formation of G3BP1-positive RNP condensates is strongly associated with repressed RNA translation, see Sahoo, P. K. et al. A Ca^2+ dependent switch activates axonal casein kinase 2α translation and drives G3BP1 granule disassembly for axon regeneration. Curr. Biol. 30, 4882-4895.e6 (2020), and altered mRNA transport, see Liao, Y. C. et al. RNA granules hitchhike on lysosomes for long-distance transport, using Annexin All as a molecular tether. Cell 179, 147-164.e20 (2019), leading to reduced protein synthesis, see Sahoo, P. K. et al. Axonal G3BP1 stress granule protein limits axonal mRNA translation and nerve regeneration. Nat. Commun. 9, 1-14 (2018). […] By quantifying OPP puncta density within in vitro NMJs, we identified robust protein synthesis within control co-cultures, while protein synthesis in TDPΔNLS NMJs was severely impaired (FIG. 19 3k-l). […] Unpaired-t-test, two-sided ****p<0.0001. c Images and d-f quantification of NFH, pTDP-43 and G3BP1 and their colocalization in C9ORF72 iPS-MN axons either treated or not with G3BP1 peptide. Quantifications of G3BP1 particle density (d), G3BP1-pTDP-43 coloc-particle density (e) and G3BP1-pTDP-43 coloc-particle size (f) from C9ORF72 and control iPS-MN axons, either treated or not with G3BP1 peptide. […] One-way-ANOVA with Holm-Sidak correction. […], ****p<0.0001. i Images and j quantification of OPP puncta density in control or ΔNLS MN axons. […]

In the case of “YGNKKNNNQNNN-VVEPEPEPEPEPEPEPVSE [G3BP1 190-208 peptide]”, the “axonal translation of GFP^MYR 5′/3′nrn1” value ([1]; G3BP1 overexpression (G3BP1-BFP)) is reported as “reversed the decrease in axonal translation; also recorded: increased”, the “axonal translation of GFP^MYR 5′/3′impβ1” value ([1]; G3BP1 overexpression) is reported as “did not rescue the decline in axonal translation” and the “GFP^MYR 5′/3′impβ1 translation in axons” value ([1]; control conditions) is reported as “lack of effect”. The “mCh^MYR 5′/3′gap43 translation in axons” value ([1]; control conditions) was “lack of effect”, the G3BP1/pTDP43 particle size [2] was “Reduce G3BP1/pTDP43 particle size” and the “pTDP43 RNP-condensate density” value [2] was “Reduce”.
